Experimental findings from ChEMBL document CHEMBL4825751, “Design, synthesis, and antitumor activity evaluation of steroidal oximes” (Bioorg Med Chem, 2021) are described below.

For orientation: pIC50 means −log10 of the IC50, conventionally taken in molar units.

The subject of test [1] is WiDr. Description: Antiproliferative activity aginst human WiDr cells assessed as reduction in cell viability at IC50 concentration measured after 72 hrs by annexin -V and propidium iodide staining based flow cytometry analysis. Format: functional. (In general: A flow cytometer gives signals particle by particle.)
Test [2] relates to WiDr. Kind of test: Induction of apoptosis in human WiDr cells assessed as increase in BAX/BCL-2 ratio at IC50 concentration measured after 72 hrs. Format: functional, cell-based.
Test [3] concerns WiDr. Kind of test: Anticancer activity against human WiDr cells assessed as inhibition of cell proliferation measured after 72 hrs by MTT assay. Format: functional, cell-based. On the technique in general: Tetrazolium dyes change colour on reduction, which living cells bring about.
Test [4] concerns WiDr. Description: Induction of mitochondrial membrane potential loss in human WiDr cells at IC50 concentration after 72 hrs by flow cytometry. Format: functional, cell-based.
In test [5] the test system is WiDr. Kind of test: Induction of oxidative stress in human WiDr cells assessed as increase in peroxide level at IC50 concentration incubated for 24 hrs by DCFH2 based green fluorescence assay. The class given is functional, cell-based.
The test system of test [6] is WiDr. Description: Induction of cell cycle arrest in human WiDr cells assessed as G2/M phase at 40 uM measured after 72 hrs by propidium iodide based assay relative to control. Format: functional.
Test [7] deals with PC-3. Description: Antiproliferative activity against human PC-3 cells assessed as reduction in cell viability at IC50 concentration measured after 72 hrs by Annexin-V and propidium iodide staining based flow cytometry analysis. Format: functional.
In test [8] the test system is PC-3. Kind of test: Induction of cell cycle arrest in human PC-3 cells assessed as pre-G0/G1 phase at 40 uM measured after 72 hrs by propidium iodide based assay relative to control. The class given is functional.
Test [9] concerns PC-3. Description: Induction of oxidative stress in human PC-3 cells assessed as increase in peroxide level at IC50 concentration incubated for 24 hrs by DCFH2 based green fluorescence assay. The class given is functional, cell-based.
Test [10] concerns PC-3. Description: Induction of oxidative stress in human PC-3 cells assessed as increase in superoxide anion level at IC50 concentration incubated for 24 hrs by DHE based red fluorescence assay. The class given is functional, cell-based.
Test [11] has as its system PC-3. Kind of test: Effect on GSH expression in human PC-3 cells incubated for 24 hrs by mercury orange based red fluorescence assay. Format: functional, cell-based.
Test [12] has as its system PC-3. Kind of test: Induction of apoptosis in human PC-3 cells assessed as late apoptotic/necrotic cells at 50 uM measured after 72 hrs by annexin-V and propidium iodide staining based flow cytometry analysis. The class given is functional.
The subject of test [13] is PC-3. Kind of test: Induction of cell cycle arrest in human PC-3 cells assessed as G0/G1 phase measured after 72 hrs by cell cycle analysis relative to control. The class given is functional.
In test [14] the test system is PC-3. Description: Induction of apoptosis in human PC-3 cells assessed as necrotic cells at IC50 concentration measured after 72 hrs by annexin-V and propidium iodide staining based flow cytometry analysis. The class given is functional.
Test [15] has as its system WiDr. Description: Induction of oxidative stress in human WiDr cells assessed as increase in superoxide anion level at 15 uM incubated for 24 hrs by DHE based red fluorescence assay. The class given is functional, cell-based.
Test [16] concerns WiDr. Kind of test: Induction of oxidative stress in human WiDr cells assessed as increase in superoxide anion level at IC50 concentration incubated for 24 hrs by DHE based red fluorescence assay. The class given is functional, cell-based.
Test [17] relates to WiDr. Kind of test: Induction of oxidative stress in human WiDr cells assessed as increase in peroxide level at 15 uM incubated for 24 hrs by DCFH2 based green fluorescence assay. The class given is functional, cell-based.
For test [18], the system named is WiDr. Description: Effect on GSH expression in human WiDr cells incubated for 24 hrs by mercury orange based red fluorescence assay. The class given is functional, cell-based.
Test [19] deals with PC-3. Description: Induction of mitochondrial membrane potential loss in human PC-3 cells at IC50 concentration after 72 hrs by flow cytometry. Format: functional, cell-based.
The subject of another test is NCI-H1299. Kind of test: Anticancer activity against human H1299 cells assessed as inhibition of cell proliferation measured after 72 hrs by MTT assay. The class given is functional, cell-based. Particulars: NCI-H1299, 72 h.
The subject of test [20] is PC-3. Description: Induction of apoptosis in human PC-3 cells assessed as increase in BAX/BCL-2 ratio at IC50 concentration measured after 72 hrs. Format: functional, cell-based.
The test system of test [21] is PC-3. Kind of test: Anticancer activity against human PC-3 cells assessed as inhibition of cell proliferation measured after 72 hrs by MTT assay. Particulars: PC-3, 72 h. Format: functional, cell-based.
Test [22] deals with WiDr. Description: Induction of cell cycle arrest in human WiDr cells assessed as pre-G0/G1 phase at 40 uM measured after 72 hrs by propidium iodide based assay relative to control. Format: functional.
The test system of the next test is CCD-841CoN. Description: Anticancer activity against human CCD841 CoN cells assessed as inhibition of cell proliferation measured after 72 hrs by MTT assay. Format: cell-based.
Test [23] relates to PC-3. Kind of test: Induction of oxidative stress in human PC-3 cells assessed as increase in peroxide level at 15 uM incubated for 24 hrs by DCFH2 based green fluorescence assay. Format: functional, cell-based.
In a further test the test system is HepG2. Description: Anticancer activity against human HepG2 cells assessed as inhibition of cell proliferation measured after 72 hrs by MTT assay. The note with it: HepG2, 72 h. Format: functional, cell-based.
In test [24] the test system is PC-3. Description: Induction of oxidative stress in human PC-3 cells assessed as increase in superoxide anion level at 15 uM incubated for 24 hrs by DHE based red fluorescence assay. Format: functional, cell-based.
In test [25] the test system is PC-3. Description: Induction of mitochondrial membrane potential loss in human PC-3 cells at 50 uM after 72 hrs by flow cytometry. The class given is functional.
Test [26] deals with PC-3. Kind of test: Induction of apoptosis in human PC-3 cells assessed as apoptotic cells at IC50 concentration measured after 72 hrs by annexin-V and propidium iodide staining based flow cytometry analysis. Format: functional.
For test [27], the system named is PC-3. Kind of test: Induction of apoptosis in human PC-3 cells assessed as apoptotic cells at 50 uM measured after 72 hrs by annexin-V and propidium iodide staining based flow cytometry analysis. Format: functional.
Test [28] has as its system PC-3. Description: Induction of apoptosis in human PC-3 cells assessed as fold increase in BAX/BCL-2 ratio at 50 uM measured after 72 hrs relative to control. Format: functional.
The test system of test [29] is WiDr. Kind of test: Induction of apoptosis in human WiDr cells assessed as late apoptotic/necrotic cells at 50 uM measured after 72 hrs by annexin-V and propidium iodide staining based flow cytometry analysis. The class given is functional, cell-based.
For test [30], the system named is PC-3. Description: Cytotoxicity against human PC-3 cells assessed as cell viability measured after 72 hrs by MTS assay. The class given is functional, cell-based. The note with it: PC-3, 72 h.

SMILES strings stand for the structures. pIC50: −log10 of the molar value. The source made the active and inactive calls. No cut-off for these calls is given here. Bounds are passed on as bounds.

`C[C@]12CCC=C[C@@H]1CC[C@@H]1[C@@H]2CC[C@]2(C)/C(=N/O)CC[C@@H]12`: the Activity in the test on WiDr [1] amounted to 47.67%; in the test with PC-3 [7], 72.74%; in the test on PC-3 [12], 18.01%; with PC-3 [13] it was 9.66%; with PC-3 [14] it was 49.94%. For the same compound, the result in the test on WiDr [2], with WiDr [4], in the test on WiDr [5], in the test with WiDr [6], in the test with PC-3 [8] and in the test on PC-3 [9] was Active. The outcome in the test on PC-3 [10], in the test with WiDr [15], in the test on WiDr [16], in the test on WiDr [17], with PC-3 [19] and in the test with PC-3 [20] was Active. Moreover, the result in the test with WiDr [22], in the test on PC-3 [23] and in the test with PC-3 [24] was Active. Further, the pIC50 in the test on WiDr [3] was 5.04; in the test on NCI-H1299, 4.73; in the test with PC-3 [21], 4.86; in the test on CCD-841CoN it was 4.50; with HepG2, 4.62. Moreover, the outcome with PC-3 [11] and in the test with WiDr [18] was inactive.
On to `C[C@]12CCC=C[C@@H]1CC[C@@H]1[C@@H]2CC[C@]2(C)C(=O)CC[C@@H]12`, for which the results for the negative logarithm of the IC50 (pIC50) with PC-3 [21] and in the test on HepG2 were 4.64 and 4.82, respectively.
`O=c1[nH]cc(F)c(=O)[nH]1` [FLUOROURACIL]: the negative-log IC50 (pIC50) is 4.98 with WiDr [3] and 4.72 with HepG2.
Regarding `CCc1c2c(nc3ccc(OC(=O)N4CCC(N5CCCCC5)CC4)cc13)-c1cc3c(c(=O)n1C2)COC(=O)[C@]3(O)CC` [IRINOTECAN], the pIC50 in the test on WiDr [3] is 4.86.
On to `C[C@]12CCCC=C1CC[C@@H]1[C@@H]2CC[C@]2(C)C(=O)CC[C@@H]12`, for which the negative-log IC50 (pIC50) in the test on WiDr [3] is 4.55; with NCI-H1299, 4.67; in the test on PC-3 [21], 4.67; in the test with HepG2, 4.75.
`COc1cc([C@@H]2c3cc4c(cc3[C@@H](O[C@@H]3O[C@@H]5CO[C@@H](C)O[C@H]5[C@H](O)[C@H]3O)[C@H]3COC(=O)[C@H]23)OCO4)cc(OC)c1O` [ETOPOSIDE]: the pIC50 with NCI-H1299 was 3.64.
With `C[C@]12CC[C@H]3O[C@H]3[C@@H]1CC[C@@H]1[C@@H]2CC[C@]2(C)C(=O)CC[C@@H]12`, the pIC50 with WiDr [3] is 4.22; in the test with PC-3 [21], 4.33; in the test on HepG2 it was 4.49.
Take `CC(C)C(=O)Nc1ccc([N+](=O)[O-])c(C(F)(F)F)c1` [FLUTAMIDE]: the figures for the pIC50 with NCI-H1299 and with PC-3 [21] were less than 3.30 and 4.24, respectively.
Consider `C[C@]12CCCC=C1CC[C@@H]1[C@@H]2CC[C@]2(C)/C(=N/O)CC[C@@H]12`, for which the Activity in the test on WiDr [1] amounted to 38.67%; in the test with PC-3 [26], 6.25%; in the test with PC-3 [7], 75.46%; with PC-3 [27] it was 32.37%. The “fold change (FC)” value is recorded as 3.66 in the test with PC-3 [25] and 1.51 in the test with PC-3 [28]. In addition, the negative logarithm of the IC50 (pIC50) in the test with WiDr [3] is 4.79; in the test on NCI-H1299 it was 4.72; in the test with PC-3 [21] it was 4.84; in the test with CCD-841CoN, less than 4.12; in the test with HepG2, 4.74. The result with WiDr [4], in the test with WiDr [5], in the test on PC-3 [8], with PC-3 [9], with PC-3 [10] and with WiDr [15] was Active. Moreover, the outcome in the test with WiDr [16], in the test with WiDr [17], with PC-3 [19], in the test with WiDr [22], in the test on WiDr [29] and with PC-3 [23] was Active. Also, the result in the test with PC-3 [24] was Active. Besides, the result in the test on PC-3 [11] and with WiDr [18] was inactive.
Take `C[C@]12CC[C@H]3[C@@H](CC[C@@]45O[C@@H]4CCC[C@]35C)[C@@H]1CCC2=O`: the negative logarithm of the IC50 (pIC50) is 4.23 in the test with WiDr [3], 4.21 in the test on PC-3 [21] and 4.37 in the test with HepG2.
Regarding `C[C@]12CC[C@H]3O[C@H]3[C@@H]1CC[C@@H]1[C@@H]2CC[C@]2(C)/C(=N/O)CC[C@@H]12`, the pIC50 in the test on WiDr [3] was 4.12; with PC-3 [21] it was 4.11; in the test on HepG2, 4.19.
On to `C[C@]12CC[C@H]3[C@@H](CC[C@@]45O[C@@H]4CCC[C@]35C)[C@@H]1CC/C2=N\O`, for which the negative logarithm of the IC50 (pIC50) in the test on WiDr [3] is 4.27; in the test with HepG2 it was 4.28.
In the case of `CC(C)CCC[C@@H](C)[C@H]1CC[C@H]2[C@@H]3C/C(=N\O)C4C[C@@H](O)CC[C@]4(C)[C@H]3CC[C@]12C` (some centres not stated), in the test with PC-3 [30], the pIC50 is 4.30.
